The test system of assay [1] is MKC mice. Briefly: Oral tolerance induction: secreted cytokines after GALNS in vitro stimulation (Examples 15-18). Format: in vivo, mouse. The following applies: for IFN-γ secretion after oral treatment: oral 50, 100 or 500 μg, GALNS in vitro stimulation. The text has this:
Control groups (7 and 8) received PBS alone.
Secreted cytokines (IL-4, IL-5, IL-10, IL-13 and IFN-γ) in the collected supernatants were detected by a bead immunoassay kit which allow the measurement of multiple proteins simultaneously (LUMINEX xMAP Technology, using a Millipore Milliplex™) kit according manufacturer's instructions (FIG. 6).

Assay [2] relates to splenocytes. Put plainly: Splenocyte proliferation after in vitro stimulation with peptides or GALNS (Examples 2, 4). In kind it is cell-based, mouse. The following applies: for proliferation of splenocytes relative to age of the animal and length of treatment: MKC mice, weeks of infusion. Here is the method:
Mice (MKC) genetically engineered not to express GALNS were used in these examples. […] 200 μl of the emulsion were administered as a subcutaneous injection. […] Control mice (n=2) were immunized with PBS emulsified in CFA and IFA respectively (Chung et al. (2005) J. Leukoc Biol. 77(6):906-13)). […] A control group (n=5) received PBS (Tomatsu et al. (2008) Hum Mol Genet. 15; 17(6):815-24). […]
Ten days after the last immunization or the last infusion, the mice were euthanized and the spleen was aseptically removed. […] The suspension was centrifuged at 1000 rpm […]. The red blood cells were lysed using a hypotonic lysis buffer (Sigma® R7757). […] Cells were pulsed with 1 JpCi of [3H]thymidine for the last 18 h of incubation. [3H]thymidine incorporation was measured by […] (Trilux Microbeta Counter). The Stimulation Index (SI) was calculated as the mean value of the three wells for each condition divided by the mean value of the unstimulated cells (Mirano-Bascos (2010) J Virol. 84(7):3303-11).

Assay [3] deals with splenocytes. Briefly: Secreted cytokine profile of splenocytes, retest in MKC mice (Example 7). The following applies: for IL-5 secretion, ERT treated vs PBS controls, p or significance / IL-13 secretion, ERT treated vs PBS controls, p or significance / profile of secreted cytokines, ERT treated vs PBS treated mice: MKC mice; for levels of IL-4 secretion among the stimuli / levels of IL-5 secretion among the stimuli: MKC mice treated by ERT; for profile of secreted cytokines, ERT treated vs PBS treated mice: 16 i.v. infusions. Format: cell-based, mouse. Here is the method:
The predicted peptides from Example 1 were reevaluated in MKC mice to reaffirm the selection of peptides 4, 8, and 10. […] A control group received PBS. […] The suspension was centrifuged at 1,000 rpm during 10 minutes. […] The specificity of cellular response against the peptides or the complete enzyme in the in vitro stimulation was determined by splenocyte proliferation or cytokine secretion in ERT treated mice or PBS injected control mice.
Cytokines were determined in the cell culture supernatants. […] Cells were centrifuged at 1,000 rpm during 10 min. Secreted cytokines (IL-4, IL-5, IL-13, and IFN-γ) in the collected supernatants were detected by a bead immunoassay kit which allow the measurement of multiple proteins simultaneously (LUMINEX xMAP Technology, using a Millipore Milliplex™ kit) according to manufacturer's instructions (FIG. 5).

Assay [4] concerns MKC mice. Put plainly: Regulatory markers (CTLA-4, TGF-β) mRNA in Peyer patches after induction of tolerance (Example 21). The following applies: real-time PCR, oral 50, 100 or 500 μg. In kind it is in vivo, mouse. From the text:
FIG. 25. Up-regulation of TGF-β expression after induction of tolerance in mice PP. […] Control groups were fed with PBS. […] The fold change in expression was related to the values of non-tolerized group. GAPDH was using as a housekeeping gene for the data normalization.
FIG. 26. Up-regulation of CTLA-4 expression after induction of tolerance in mice PP. […] Control groups were fed with PBS. […] The fold change in expression was related to the values of non-tolerized group. GAPDH was using as a housekeeping gene for the data normalization.
Regulatory Markers Evaluation in Peyer Patches (PP) after Induction of Tolerance. […] Most of the mice presented up-regulation of these regulatory molecules when compare with the non-tolerized group.

The test system of assay [5] is splenocytes. Put plainly: Secreted cytokines of splenocytes in Morquio A mouse models and WT mice treated by ERT (Examples 10-13). Format: cell-based. The following applies: for IL-4 secretion / IL-5 secretion / IL-13 secretion: MTol mice. On the procedure: (§1) Morquio A mouse models: a). […] 14(22): p. 3321-35).c). Missense mutation mice (Galnstm (C76S) SLU C2) (Tomatsu et al. (2007) Mol Genet Metab., 91(3): p. 251-8), and wild-type C57BL6 mice were treated by ERT. […] A control group received PBS.
(§2) The suspension was centrifuged at 1,000 rpm during 10 minutes.
Cytokines were determined in the cell culture supernatants. […] Cells were centrifuged at 1000 rpm during 10 min. Secreted cytokines (IL-4, IL-5, IL-13, and IFN-γ) in the collected supernatants were detected by a bead immunoassay kit which allow the measurement of multiple proteins simultaneously (LUMINEX xMAP Technology, using a Millipore Milliplex™ kit) according to manufacturer's instructions.

Assay [6] relates to splenocytes. Briefly: Splenocytes proliferation in Morquio A mouse models and WT mice treated by ERT (Example 9). In kind it is cell-based. On the procedure:
as §1, §2
Thymidine incorporation was measured by β-Scintillation counter (Trilux Microbeta Counter) Mirano-Bascos, et al. (2010) J Virol. 84(7): p. 3303-11).

For assay [7], the system named is splenocytes. Briefly: Screening of peptides by splenocytes proliferation, retest in MKC mice (Examples 5-6). In kind it is cell-based, mouse. The following applies: MKC mice, 16, 22 and 24 infusions; with higher number of infusions. On the procedure:
of body weight through the tail vein. A control group received PBS. […] The suspension was centrifuged at 1,000 rpm during 10 minutes. […] The specificity of cellular response against the peptides or the complete enzyme in the in vitro stimulation was determined by splenocyte proliferation or cytokine secretion in ERT treated mice or PBS injected control mice. […] 3H-Thymidine incorporation was measured by β-Scintillation counter (Trilux Microbeta Counter). Proliferation data are expressed as counts per minute (cpm) values (FIG. 5). (Mirano-Bascos et al. (2010) J Virol. 84(7): p. 3303-11).

For “QQHQEALVPAQPQLNVTNWA (listed as Homo sapiens) [Peptide I10]”, in the assay on MKC mice [1], the “IFN-γ secretion after oral treatment” value is recorded as “down-regulated”. Moreover, in the assay with splenocytes [2], the “proliferation of splenocytes relative to age of the animal and length of treatment” value is listed as “highest response at 16 weeks”. For the same molecule, the splenocyte proliferation response result in the assay on splenocytes [2] (splenocytes of MKC mice treated by ERT with GALNS, in vitro peptide stimulation) is recorded as “strong response”. Moreover, in the assay with splenocytes [3], the “IL-5 secretion, ERT treated vs PBS controls, p or significance” value is 0.0094; the “IL-13 secretion, ERT treated vs PBS controls, p or significance” value is 0.0002; the “levels of IL-4 secretion among the stimuli” value is reported as “Higher levels”; the “levels of IL-5 secretion among the stimuli” value was “Higher levels”. Besides, in the assay on splenocytes [3], the “profile of secreted cytokines, ERT treated vs PBS treated mice” value is listed as “statistically significant difference”. For the same molecule, in the assay with MKC mice [4], the “CTLA-4 expression in Peyer patches vs non-tolerized group” value is “predominantly up-regulated” and the “TGF-β expression in Peyer patches vs non-tolerized group” value is “observed in both groups”. In the assay with splenocytes [5], the “IFN-γ secretion, MKC vs MTol mice treated by ERT, p or significance” value is 0.044; the IL-4 secretion entry is recorded as “did not present secretion of IL-4”; the IL-5 secretion result is “did not present secretion of IL-5”; the IL-13 secretion result was “did not show any secretion of IL-13”. The “specific cellular response after splenocytes in vitro stimulation” value with splenocytes [5] (mice treated by ERT, compared with GALNS stimulation) is on record as “very similar to the one observed by in vitro stimulation with GALNS”. Moreover, in the assay on splenocytes [6] (C2 mice), the “splenocytes proliferation, ERT treated vs PBS controls” value is recorded as “statistically significant difference”. For the same molecule, the “splenocytes proliferation, ERT treated vs PBS controls” value in the assay on splenocytes [6] (MKC mice) is given as “statistically significant”. In addition, the “splenocytes proliferation, ERT treated vs PBS controls” value in the assay on splenocytes [6] (WT mice) is on record as “statistically significant difference”. The “relationship between number of weekly i.v. infusions and cpm values of splenocytes proliferation” value with splenocytes [7] is reported as “lower levels of proliferation”.

B1: N-acetylgalactosamine-6-sulfatase (protein, listed as Homo sapiens)
chain: APQPPNILLLLMDDMGWGDLGVYGEPSRETPNLDRMAAEGLLFPNFYSANPLCSPSRAALLTGRLPIRNGFYTTNAHARNAYTPQEIVGGIPDSEQLLPELLKKAGYVSKIVGKWHLGHRPQFHPLKHGFDEWFGSPNCHFGPYDNKARPNIPVYRDWEMVGRYYEEFPINLKTGEANLTQIYLQEALDFIKRQARHHPFFLYWAVDATHAPVYASKPFLGTSQRGRYGDAVREIDDSIGKILELLQDLHVADNTFVFFTSDNGAALISAPEQGGSNGPFLCGKQTTFEGGMREPALAWWPGHVTAGQVSHQLGSIMDLFTTSLALAGLTPPSDRAIDGLNLLPTLLQGRLMDRPIFYYRGDTLMAATLGQHKAHFWTWTNSWENFRQGIDFCPGQNVSGVTTHNLEDHTKLPLIFHLGRDPGERFPLSFASAEYQEALSRITSVVQQHQEALVPAQPQLNVCNWAVMNWAPPGCEKLGKCLTPPESIPKKCLWSH
notes: recombinant human GALNS produced in CHO cells, used for ERT and oral tolerance
As for B1, the “IL-10 secretion after oral treatment” value with MKC mice [1] (mice treated orally) is “down-regulation of IL-10”. Moreover, the “IFN-γ secretion after oral treatment” value in the assay with MKC mice [1] is “did not show any modulation”. The “proliferation of splenocytes relative to age of the animal and length of treatment” value in the assay with splenocytes [2] is on record as “highest response at 16 weeks”. For the same molecule, in the assay with splenocytes [3], the “IL-5 secretion, ERT treated vs PBS controls, p or significance” value was found to be 0.0029; the “IL-13 secretion, ERT treated vs PBS controls, p or significance” value is reported as 0.0152; the “levels of IL-4 secretion among the stimuli” value is listed as “Higher levels”; the “levels of IL-5 secretion among the stimuli” value is recorded as “Higher levels”. Besides, the “profile of secreted cytokines, ERT treated vs PBS treated mice” value in the assay with splenocytes [3] is on record as “statistically significant difference”. In the assay with MKC mice [4], the “TGF-β expression in Peyer patches vs non-tolerized group” value was “observed in both groups”. In addition, in the assay with splenocytes [5], the “IFN-γ secretion, MKC vs MTol mice treated by ERT, p or significance” value is recorded as “not statistically significant”; the IL-4 secretion result was “did not present secretion of IL-4”; the IL-5 secretion result was “did not present secretion of IL-5”; the IL-13 secretion result was “did not show any secretion of IL-13”. Besides, the “splenocytes proliferation, ERT treated vs PBS controls” value with splenocytes [6] (C2 mice) is given as “statistically significant difference”. In addition, in the assay on splenocytes [6] (MKC mice), the “splenocytes proliferation, ERT treated vs PBS controls” value is recorded as “statistically significant”. Further, the “splenocytes proliferation, ERT treated vs PBS controls” value in the assay with splenocytes [6] (WT mice) is “statistically significant difference”. The “relationship between number of weekly i.v. infusions and cpm values of splenocytes proliferation” value in the assay on splenocytes [7] is on record as “lower levels of proliferation”.

For the origin of these results see US11529397B2, “Method of treating mucopolysaccharidosis type IVA” (Saint Louis University, priority 2018, dated 2022).
